Data on one compound can be found in PMC9229843, “Cancer-Related Somatic Mutations in Transmembrane Helices Alter Adenosine A1 Receptor Pharmacology” (Molecules, 2022).

Changes are numbered by the printed parent chain.

Experiment [1] has as its target T1, hA1AR H78L^3.23 (Homo sapiens, UniProt P30542, H78L).
T1 sequence (P30542 1-326 H78L): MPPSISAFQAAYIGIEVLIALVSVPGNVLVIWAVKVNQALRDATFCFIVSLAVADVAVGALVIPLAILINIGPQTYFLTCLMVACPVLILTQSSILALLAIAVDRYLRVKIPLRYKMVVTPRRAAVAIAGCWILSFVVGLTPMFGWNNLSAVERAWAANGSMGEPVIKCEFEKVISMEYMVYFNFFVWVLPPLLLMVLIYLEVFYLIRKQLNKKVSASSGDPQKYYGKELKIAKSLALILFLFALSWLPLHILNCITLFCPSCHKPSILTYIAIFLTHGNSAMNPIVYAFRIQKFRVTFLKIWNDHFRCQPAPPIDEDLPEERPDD
As to conditions: [35S]GTPγS; ratio over basal activity of wild type hA1AR. The procedure: (§1) Transient transfection of CHO cells with wild type or mutated hA1AR plasmid constructs was performed using a polyethylenimine (PEI) method. Cells were seeded in 10-cm culture dishes to achieve 50–60% confluency 24 h prior to transfection. On the day of transfection, cells were transfected with a PEI: DNA ratio of 3:1 and a plasmid DNA amount of 10 μg/dish. Moreover, 24 h post-transfection, the medium was refreshed, and 48 h after transfection, cells were collected and membranes were prepared as previously described. Membranes were aliquoted in 250 or 100 μL and stored at −80 °C. Membrane protein concentrations were determined using the BCA method.
(§2) [^35S]GTPγS binding assays were adapted from a previously published method. […] Then, 20 µL of [^35S]GTPγS (final concentration of 0.3 nM) was added to each well, followed by 90 min of incubation at 25 °C. Incubations were terminated and filter-bound radioactivity was measured as described above.
(§3) All experimental data were analyzed by GraphPad Prism 7.0 or 8.0 (GraphPad Software Inc., San Diego, CA, USA). Data from yeast liquid growth and [^35S]GTPγS binding assays were analyzed by non-linear regression using “log (agonist) vs. response (three parameters)” or “log (inhibitor) vs. response (three parameters)” to obtain potency (EC50), inhibitory potency (IC50), and efficacy (Emax or Imax) values. The radioligand displacement curves were obtained from a statistically preferred one-site or two-site binding model. pKi values were calculated from pIC50 values using the Cheng–Prusoff equation, where KD values were obtained from the homologous competition assays from this study and calculated by non-linear regression using “one site–homologous” [62].

Experiment [2] addresses T2, hA1AR G279S^7.44 (Homo sapiens, UniProt P30542, G279S).
T2 sequence (P30542 1-326 G279S): T1 sequence (P30542 1-326 H78L) with L78H, G279S
As to conditions: [35S]GTPγS; ratio over basal activity of wild type hA1AR. On the procedure:
as §1, §2, §3

Experiment [3] deals with T3, hA1AR W188C^5.46 (Homo sapiens, UniProt P30542, W188C).
T3 sequence (P30542 1-326 W188C): T1 sequence (P30542 1-326 H78L) with L78H, W188C
The experiment is described as follows: yeast liquid growth assay. Type of experiment: cell-based. On the procedure: The plasmids, pDT-PGK_hA1AR, containing either wild type or mutated hA1AR were transformed into a MMY24 S. cerevisiae strain following the lithium acetate procedure.
In order to characterize the mutant hA1ARs, liquid growth assays in 96-well plates were performed to obtain concentration–growth curves as previously described. […] The overnight cultures were then diluted to 40,000 cells/mL (OD600 ≈ 0.02) in a selective medium without uracil, leucine, and histidine (YNB-ULH). For the determination of constitutive activity, 50 μL of yeast cells and 150 μL of YNB-ULH medium containing different concentrations of 3-AT and 0.8 IU/mL ADA were then added to each well. To obtain concentration–growth curves, 2 μL of various concentrations of ligands, 50 μL of yeast cells, and 150 μL of YNB-ULH medium containing 7 mM 3-AT and 0.8 IU/mL ADA were then added to each well. After incubation at 30 °C for 35 h in a Genios plate reader (TECAN, Zürich, Switzerland) with shaking for 1 min at 300 rpm every 10 min, the optical density was measured at a wavelength of 595 nm, which represented the level of yeast cell growth.
as §3

Experiment [4] has as its target T4, wild type hA1AR (Homo sapiens, UniProt P30542).
T4 sequence (P30542 1-326): T1 sequence (P30542 1-326 H78L) with L78H
The experiment is described as follows: [3H]DPCPX radioligand displacement assay, CHO membranes. The experiment is classed as binding. As to conditions: fraction of high-affinity state; two-site model. On the procedure:
as §1
The displacement assays were performed as described previously. […] After the addition of 25 µL per well of the Microscint scintillation cocktail (PerkinElmer, Groningen, The Netherlands), the filter-bound radioactivity was measured by scintillation spectrometry in a Microbeta2® 2450 microplate counter (PerkinElmer).
All experimental data were analyzed by GraphPad Prism 7.0 or 8.0 (GraphPad Software Inc., San Diego, CA, USA). Data from yeast liquid growth and [^35S]GTPγS binding assays were analyzed by non-linear regression using “log (agonist) vs. response (three parameters)” or “log (inhibitor) vs. response (three parameters)” to obtain potency (EC50), inhibitory potency (IC50), and efficacy (Emax or Imax) values. […]
For orientation: In a radioligand displacement assay an active substance lowers the binding of a labelled ligand.

Regarding `OC[C@H]1O[C@@H](n2cnc3c(NC4CCCC4)ncnc32)[C@H](O)[C@@H]1O` [CPA, N^6-cyclopentyladenosine], the Emax in experiment [1] was 1.40 ± 0.10; in experiment [2], 1.57 ± 0.20; in experiment [3] (ratio over basal activity of wild type hA1AR, 7 mM 3-AT), 4.35 ± 0.10. Also, in experiment [3], the “decrease in potency versus wild type hA1AR” value came out at 10 fold. Further, in experiment [4], the “Fraction (High)” value was determined as 0.15 ± 0.03.
